Tests used:
GLUT4 [1] = assay: GLUT4 mobilization monitoring (cellular membrane distribution of GLUT4, Western blotting with anti-c-myc antibody); assay type: cell-based
Experimental: FIG. 1 is a graph showing that DOPE has an action to increase cellular membrane distribution of GLUT4 in differentiated 3T3L1-GLUT4myc adipocytes. The cells were not treated with (Control), or treated with 1 μM of various phospholipid derivatives and, after 20 min, lysed, and separated into the cytoplasm (C) fraction and cellular membrane (M) fraction, after which Western blotting was performed using an anti-c-myc antibody. […] P value, ANOVA (Bonferroni adjustment). NS; not significant. DOPE; 1,2-dioleoyl-sn-glycero-3-phosphoethanolamine, DAPE; 1,2-diarachidonoyl-sn-glycero-3-phosphoethanolamine, DPPE; 1,2-dipalmitoleoyl-sn-glycero-3-phosphoethanolamine, DLPE; 1,2-dilinoleoyl-sn-glycero-3-phosphoethanolamine.
(§1) 3T3L1-GLUT4myc fibroblast strain expressing GLUT4myc was used. The cells are constructed by inserting human c-MYC epitope (14 amino acids) into the first ectodomain. […]
(§2) The protein concentration of each fraction was measured using BCA protein assay kit (Thermo Fisher Scientific, Waltham, Mass., USA). […] The immunoreactivity was detected using ECL kit (Invitrogen), and visualized using a chemical luminescence detection system (chemiluminescence detection system; GE Healthcare, Piscataway, N.J., USA). The signal density was measured using an image analysis software (Image Gauge software; GE Healthcare).

PKCα = PKCα (Homo sapiens, UniProt P17252); assay: Cell free PKC assay, PKCα activated by TPA; assay type: biochemical; settings: DOPE 100 μM, TPA 1 μM
Experimental: (§3) PKC activity was monitored in a cell-free system. (A) Given PKC isozyme was evaluated in the absence or presence of DOPE (100 μM). […] P value, compared to each PKC isozyme activation in the absence of DOPE, Dunnett's test. (B) The activity of PKCα was evaluated in the absence (control) or presence of DOPE (100 μM), in the absence or presence of TPA (1 μM). […] P value, Dunnett's test. TPA; 12-O-tetradecanoylphorbol-[…].
(§4) PKC activity in a cell-free system was quantified by the methods described in previous reports (Kanno T et al. J Lipid Res 2006; 47:1146-1156). In short, synthesized PKC substrate peptide (10 μM) was reacted with various PKC isozymes in a medium containing 20 mM Tris-HCl (pH 7.5), 5 mM magnesium acetate, 10 μM ATP, in the presence or absence of DOPE (100 μm), in the presence or absence of 1 μM TPA (12-O-tetradecanoylphorbol-13-acetate) at 30° C. for 5 min. […] They were applied on reversed-phase HPLC (LC-10ATvp, Shimadzu Co., Kyoto, Japan), and the peak of substrate peptide and the peak of a new resultant product were measured by the absorbance at 214 nm. The areas of unphosphorylated PKC substrate peptide and phosphorylated PKC substrate peptide were measured (total area corresponds to the concentration of PKC substrate peptide used in this Example), and the amount of the phosphorylated substrate peptide was calculated. […]

PKC isozymes = assay: Cell free PKC assay, PKC isozymes; assay type: biochemical; settings: DOPE 100 μM, absence of TPA
Experimental: as §3, §4

GLUT4 [2] = assay: GLUT4 internal transfer (uptake) assay after insulin pre-treatment; assay type: cell-based; settings: insulin 100 nM 30 min then washed
Experimental: FIG. 2 is a graph showing that the GLUT4 cellular membrane distribution increasing action of DOPE derives from the suppression of GLUT4 endocytosis. 3T3L1-GLUT4myc adipocytes were treated with insulin (100 nM) for 30 min (−30-0 min), then washed to remove insulin (0 min), and DOPE (10 mM) was added to an extracellular solution. After incubation for 120 min, the cells were lysed, and separated into the cytoplasm (C) fraction and cellular membrane (M) fraction, after which Western blotting was performed using an anti-c-myc antibody. […] P value, ANOVA (Bonferroni adjustment). NS; not significant.
as §1
as §2, with “Healthcare). […]” for “Healthcare).”

Glucose tolerance test = assay type: in vivo, C57BL/KsJ-lepr^db/lepr^db mouse; settings: type 2 diabetes model mouse, DOPE 0.1, 1, 10 mg/kg oral 30 min before glucose 2 g/kg; 30, 60, 90 min
Experimental: FIG. 6 is a graph showing that DOPE decreases the serum glucose level in C57BL/KsJ-lepr^db/lepr^db mouse. The mouse was placed in glucose starvation for 12 hr, glucose (2 g/kg) was orally administered, the blood was recovered at a given time and serum glucose assay was performed. DOPE was orally administered at a given concentration (0-10 mg/kg) 30 min before administration of glucose. […] P value, Fisher's PLSD (Protected Least Significant Difference test).
C57BL/KsJ-lepr^db/lepr^db mouse (female, 8-week-old) (CLEA Japan; Tokyo, Japan) was used. Glucose tolerance test was performed using the mouse starved for 12 hr. Glucose (2 g/ml/kg body weight) was administered by gavage, and the time point thereof was taken as 0 h. DOPE (0, 0.1, 1, 10 mg/kg) was orally administered 30 min before administration of glucose. Brine was used for DOPE (0 mg/kg). The blood (10 μl) was collected from the tail vein at the time points of 30, 60, and 90 min, and each plasma sample which was labeled with 4-aminobenzyl ethyl ester (ABEE) and prepared from the obtained blood was loaded on high performance liquid chromatography (HPLC) system (LC-10ATvp; Shimadzu Co., Kyoto, Japan). The glucose concentration was calculated from a peak area/concentration analytical curve prepared using the standard glucose solution.

Row | Compound | distribution of GLUT4 in cellular membrane (c-myc signal in cellular membrane fraction / total cells) (GLUT4 [1]; differentiated 3T3L1-GLUT4myc adipocytes, 1 μM phospholipid derivative, 20 min, vs Control) | PKCα activity activated by TPA (PKCα) | PKC activation (PKC isozyme activity, pmol/min) (PKC isozymes) | endocytosis of GLUT4 transported onto the cellular membrane by insulin stimulation (GLUT4 [2]; 3T3L1-GLUT4myc adipocytes) | blood glucose level (Glucose tolerance test) | GLUT4 distribution on the cellular membrane (GLUT4 [1]; 3T3L1-GLUT4myc adipocytes 48 hr after siRNA transfection, vs NC siRNA) | decrease of GLUT4 on the cellular membrane by endocytosis after insulin stimulation (GLUT4 [2]; siRNA-transfected 3T3L1-GLUT4myc adipocytes, 120 min)
1 | CCCCCCCC/C=C\CCCCCCCC(=O)OC[C@H](COP(=O)(O)OCCN)OC(=O)CCCCCCC/C=C\CCCCCCCC [DOPE, 1,2-Dioleoyl-sn-glycerol-3-phosphoethanolamine] | significantly increased | suppress PKCα activated by TPA | not involved in PKC activation | suppressed | decrease blood glucose level of type 2 diabetes model mouse in a dose dependent manner |  | 
2 | PKCα siRNA: siRNA for PKCα, SEQ ID NO: 1 and 2, purchased from Ambion (chain 1 GAACGUGCAUGAGGUGAAATT; chain 2 UUUCACCUCAUGCACGUUCTT; chemistry not given here) [reference compound] |  |  |  |  |  | significantly increased | the decrease was suppressed

Source: patent publication US10251897B2, “GLUT4 endocytosis inhibitor” (NISHIZAKI BIOINFORMATION RESEARCH INSTITUTE, priority 2014, dated 2019)
